Measured values reported in patent US7754654B2, “Substituted spirocyclic ketoenols” (Bayer CropScience AG, priority 2002, dated 2010).
Where “and” joins values, the source holds several entries; their conditions need not be identical. Identical values can stand only once.

How the values were obtained:
Assay type in all cases: in vivo
[1] = tested on: peach aphid (Myzus persicae); assay: Myzus test (cabbage leaf dip)
Method: To produce a suitable preparation of active compound, 1 part by weight of active compound is mixed with the stated amounts of solvent and emulsifier, and the concentrate is diluted with emulsifier-containing water to the desired concentration. Cabbage leaves (Brassica oleracea) which are heavily infested by the peach aphid (Myzus persicae) are treated by being dipped into the preparation of active compound of the desired concentration. After the desired period of time, the kill in % is determined. 100% means that all aphids have been killed; 0% means that none of the aphids have been killed.

[2] = tested on: greenhouse red spider mite (Tetranychus urticae); assay: Tetranychus test (OP-resistant/dip treatment); conditions: 100 ppm; bean plants dipped
Method: To produce a suitable preparation of active compound, 1 part by weight of active compound is mixed with the stated amounts of solvent and emulsifier, and the concentrate is diluted with emulsifier-containing water to the desired concentration. Bean plants (Phaseolus vulgaris) which are heavily infested by all stages of the greenhouse red spider mite (Tetranychus urticae) are dipped into a preparation of active compound of the desired concentration. After the desired period of time, the effect in % is determined. 100% means that all spider mites have been killed; 0% means that none of the spider mites have been killed.

[3] = tested on: larvae of the mustard beetle (Phaedon cochleariae); assay: Phaedon larvae test (cabbage leaf dip); conditions: 1000 ppm
Method: (§1) To produce a suitable preparation of active compound, 1 part by weight of active compound is mixed with the stated amounts of solvent and emulsifier, and the concentrate is diluted with emulsifier-containing water to the desired concentration. Cabbage leaves (Brassica oleracea) are treated by being dipped into the preparation of active compound of the desired concentration and are populated with larvae of the mustard beetle (Phaedon cochleariae) while the leaves are still moist. After the desired period of time, the kill in % is determined. 100% means that all beetle larvae have been killed; 0% means that none of the beetle larvae have been killed.

Alopecurus [4] = assay: Pre-emergence test; conditions: after three weeks
Method: (§2) To produce a suitable preparation of active compound, 1 part by weight of active compound is mixed with the stated amount of solvent, the stated amount of emulsifier is added and the concentrate is diluted with water to the desired concentration. Seeds of the test plants are sown in normal soil. After about 24 hours, the soil is sprayed with the preparation of active compound such that the particular amounts of active compound desired are applied per unit area. The concentration of the spray liquor is chosen such that the particular amounts of active compound desired are applied in 1000 l of water/ha. After three weeks, the degree of damage to the plants is rated in % damage in comparison to the development of the untreated control. The figures denote: • 0%=no effect (like untreated control) • 100%=total destruction

Setaria [5] = assay: Pre-emergence test; conditions: after three weeks
Method: as §2

Amaranthus [6] = assay: Pre-emergence test; conditions: after three weeks
Method: as §2

[7] = tested on: caterpillars of the army worm (Spodoptera frugiperda); assay: Spodoptera frugiperda test (cabbage leaf dip)
Method: as §1, with “caterpillars” for “larvae”, “army worm (Spodoptera frugiperda)” for “mustard beetle (Phaedon cochleariae)”, “caterpillars” for “beetle larvae”

Sinapis [8] = assay: Post-emergence test; conditions: 250 g of ai/ha, after three weeks
Method: as §2, with “Test plants” for “Seeds”, “a height of 5-15 cm” for “the test plants”, “are” for “are sown in normal soil. After about 24 hours, the soil is”

Alopecurus [9] = assay: Post-emergence test; conditions: 250 g of ai/ha, after three weeks
Method: as §2, with “Test plants” for “Seeds”, “a height of 5-15 cm” for “the test plants”, “are” for “are sown in normal soil. After about 24 hours, the soil is”

Setaria [10] = assay: Post-emergence test; conditions: 250 g of ai/ha, after three weeks
Method: as §2, with “Test plants” for “Seeds”, “a height of 5-15 cm” for “the test plants”, “are” for “are sown in normal soil. After about 24 hours, the soil is”

Sugar beet = assay: Post-emergence test; conditions: 250 g of ai/ha, after three weeks
Method: as §2, with “Test plants” for “Seeds”, “a height of 5-15 cm” for “the test plants”, “are” for “are sown in normal soil. After about 24 hours, the soil is”

Amaranthus [11] = assay: Post-emergence test; conditions: 250 g of ai/ha, after three weeks
Method: as §2, with “Test plants” for “Seeds”, “a height of 5-15 cm” for “the test plants”, “are” for “are sown in normal soil. After about 24 hours, the soil is”

Sinapis [12] = assay: Pre-emergence test; conditions: after three weeks
Method: as §2

Echinochloa = assay: Pre-emergence test; conditions: 2000 g of ai/ha, after three weeks
Method: as §2

Meloidogyne incognita = assay: Meloidogyne test (gall formation on lettuce roots); conditions: 20 ppm; nematicidal action by gall formation, 100% = no galls
Method: To produce a suitable preparation of active compound, 1 part by weight of active compound is mixed with the stated amounts of solvent and emulsifier, and the concentrate is diluted with water to the desired concentration. Containers are filled with sand, solution of active compound, Meloidogyne incognita egg/larvae suspension and lettuce seeds. The lettuce seeds germinate and the plants develop. On the roots, galls are formed. After the desired period of time, the nematicidal action is determined in % by the gall formation. 100% means that no galls have been found; 0% means that the number of galls on the treated plants corresponds to that of the untreated control.

Botrytis cinerea = assay: Botrytis test (bean)/protective; conditions: 500 g/ha, protective, 2 days after inoculation
Method: To produce a suitable preparation of active compound, 1 part by weight of active compound is mixed with the stated amounts of solvent and emulsifier, and the concentrate is diluted with water to the desired concentration. To test for protective activity, young plants are sprayed with the preparation of active compound at the stated application rate. After the spray coating has dried on, 2 small pieces of agar colonized by Botrytis cinerea are placed onto each leaf. The inoculated plants are placed in a dark chamber at about 20° C. and 100% relative atmospheric humidity. 2 days after the inoculation, the size of the infested areas of the leaves is evaluated. 0% means an efficacy which corresponds to that of the control, whereas an efficacy of 100% means that no infection is observed.

Avena fatua = assay: Pre-emergence test; conditions: 125 g of ai/ha, after three weeks
Method: as §2

[13] = tested on: larva (L3) of the army worm (Spodoptera frugiperda); assay: Spodoptera frugiperda test/synthetic feed; conditions: 1000 ppm; synthetic feed
Method: To produce a suitable preparation of active compound, 1 part by weight of active compound is mixed with the stated amounts of solvent and emulsifier, and the concentrate is diluted with emulsifier-containing water to the desired concentration. A stated amount of the preparation of active compound of the desired concentration is pipetted onto a standardized amount of synthetic feed. In 6 replications, in each case one larva (L3) of the army worm (Spodoptera frugiperda) is placed onto the feed. After the desired period of time, the kill in % is determined. 100% means that all animals have been killed; 0% means that none of the animals have been killed.

With Cc1cc(C)c(C2=C(O)C3(CCC(OCCOC(C)C)CC3)NC2=O)c(C)c1C (single isomer, unassigned) [Ex. I-1-a-2] the “Kill rate in % after 6d” value ([1]; 1000 ppm) was 100%, the “Kill rate in % after 7d” value [2] was 95% and the “Kill rate in % after 7d” value [3] was 100%.
COCCOC1CCC2(CC1)NC(=O)C(c1c(C)cc(C)c(C)c1C)=C2O (single isomer, unassigned) [Ex. I-1-a-3] was tested, and the “Kill rate in % after 7d” value [2] was 98% and the “Kill rate in % after 7d” value [3] was 100%.
COCCOC1CCC2(CC1)NC(=O)C(c1c(C)cc(C)cc1C)=C2O (single isomer, unassigned) [Ex. I-1-a-4] was tested, and the “% damage” value (Alopecurus [4]; 250 g of ai/ha) was 80%, the “% damage” value (Setaria [5]; 250 g of ai/ha) was 100% and the “% damage” value (Amaranthus [6]; 250 g of ai/ha) was 95%. For the same compound, the “Kill rate in % after 7d” value ([7]; 1000 ppm) was 100% and the “Kill rate in % after 6d” value ([1]; 1000 ppm) was 90%.
COCCOC1CCC2(CC1)NC(=O)C(c1cc(C)ccc1C)=C2O (single isomer, unassigned) [Ex. I-1-a-5] was tested, and the “Kill rate in % after 7d” value ([7]; 1000 ppm) was 100% and the “Kill rate in % after 6d” value ([1]; 1000 ppm) was 98%.
Cc1cc(C)c(C2=C(O)C3(CCC(OCC4CCCO4)CC3)NC2=O)c(C)c1C (single isomer, unassigned) [Ex. I-1-a-6] was tested, and the “Kill rate in % after 7d” value [3] was 100%.
In the case of Cc1cc(C)c(C2=C(O)C3(CCC(OCC4CCCO4)CC3)NC2=O)cc1C (single isomer, unassigned) [Ex. I-1-a-8], the “Kill rate in % after 7d” value ([7]; 1000 ppm) was 100%.
For Cc1ccc(C)c(C2=C(O)C3(CCC(OCC4CCCO4)CC3)NC2=O)c1 (single isomer, unassigned) [Ex. I-1-a-9], the “Kill rate in % after 7d” value [3] was 100%.
With Cc1cc(Cl)cc(C)c1C1=C(O)C2(CCC(OCC3CCCO3)CC2)NC1=O (single isomer, unassigned) [Ex. I-1-a-10] the “% damage” value (Sinapis [8]) was 80%, the “% damage” value (Alopecurus [9]) was 70% and the “% damage” value (Setaria [10]) was 95%. For the same compound, the “% damage” value (Sugar beet) was 0%, the “% damage” value (Amaranthus [11]) was 90% and the “Kill rate in % after 7d” value [3] was 100%.
In the case of C=CCOC1CCC2(CC1)NC(=O)C(c1c(C)cc(Cl)cc1C)=C2O (single isomer, unassigned) [Ex. I-1-a-11], the “% damage” value (Sinapis [12]; 2000 g of ai/ha) was 90%, the “% damage” value (Echinochloa) was 100% and the “Kill rate in % after 7d” value ([7]; 500 ppm) was 100%. For the same compound, the “Kill rate in % after 7d” value [2] was 95%.
C=CCOC1CCC2(CC1)NC(=O)C(c1c(C)cc(Cl)cc1Cl)=C2O (single isomer, unassigned) [Ex. I-1-a-12] was tested, and the “% damage” value (Amaranthus [6]; 2000 g of ai/ha) was 90% and the “Kill rate in % after 7d” value ([7]; 500 ppm) was 100%.
For C=CCOC1CCC2(CC1)NC(=O)C(c1c(C)cc(Cl)cc1Cl)=C2O (single isomer, unassigned) [Ex. I-1-a-13], the “% damage” value (Alopecurus [4]; 2000 g of ai/ha) was 95% and 90%.
Cc1cc(C)c(C2=C(O)C3(CCC(OCc4ccccc4Cl)CC3)NC2=O)cc1C (single isomer, unassigned) [Ex. I-1-a-20] was tested, and the “Kill rate in % after 7d” value [3] was 100%.
For Cc1ccc(C)c(C2=C(O)C3(CCC(OCc4ccccc4Cl)CC3)NC2=O)c1 (single isomer, unassigned) [Ex. I-1-a-21], the “Kill rate in % after 7d” value [3] was 100%.
With Cc1cc(C)c(C2=C(O)C3(CCC(OCc4cccc(Cl)c4)CC3)NC2=O)c(C)c1C (single isomer, unassigned) [Ex. I-1-a-22] the “Effect in % after 14d” value (Meloidogyne incognita) was 98% and the “Kill rate in % after 7d” value [3] was 100%.
For Cc1ccc(C)c(C2=C(O)C3(CCC(OCc4cccc(Cl)c4)CC3)NC2=O)c1 (single isomer, unassigned) [Ex. I-1-a-25], the “Kill rate in % after 7d” value [3] was 100%.
With Cc1cc(C)c(C2=C(O)C3(CCC(OCc4ccc(Cl)cc4)CC3)NC2=O)c(C)c1C (single isomer, unassigned) [Ex. I-1-a-26] the “Effect in % after 14d” value (Meloidogyne incognita) was 100% and the “Kill rate in % after 7d” value [3] was 100%.
In the case of Cc1ccc(-c2ccc(Cl)cc2)cc1C1=C(O)C2(CCC(OCc3ccc(Cl)cc3)CC2)NC1=O (single isomer, unassigned) [Ex. I-1-a-30], the “% efficacy” value (Botrytis cinerea) was 100%, the “Kill rate in % after 6d” value ([1]; 500 ppm) was 100% and the “Kill rate in % after 7d” value [2] was 99%.
For O=C1NC2(CCC(OCc3ccc(Cl)cc3)CC2)C(O)=C1c1cc(-c2ccc(Cl)cc2)ccc1Cl (single isomer, unassigned) [Ex. I-1-a-31], the “Kill rate in % after 7d” value ([7]; 500 ppm) was 100%, the “Effect in % after 14d” value (Meloidogyne incognita) was 95% and the “Kill rate in % after 7d” value [2] was 99%.
C=CCOC1CCC2(CC1)NC(=O)C(c1c(C)cc(Cl)cc1C)=C2OC(=O)OCC (single isomer, unassigned) [Ex. I-1-c-2] was tested, and the “Effect in % after 14d” value (Meloidogyne incognita) was 100% and the “Kill rate in % after 6d” value ([1]; 500 ppm) was 95%.
With CCOC(=O)OC1=C(c2c(C)cc(C)cc2C)C(=O)NC12CCC(OCc1ccccc1)CC2 (single isomer, unassigned) [Ex. I-1-c-3] the “% damage” value (Sinapis [12]; 125 g of ai/ha) was 90%, the “% damage” value (Avena fatua) was 70% and the “% damage” value (Alopecurus [4]; 125 g of ai/ha) was 90%. The “% damage” value (Setaria [5]; 125 g of ai/ha) was 100%.
In the case of Cc1ccc(C)c(C2=C(OC(=O)C(C)C)C3(CCC(OCc4ccccc4)CC3)NC2=O)c1 (stereo not drawn) [Ex. I-1-b-1], the “Kill rate in % after 7d” value [13] was 100%.
